Values joined by “and” are separate entries in the source; they are usually repeats but may differ in a detail not shown here. Identical values can stand only once. “Also recorded” adds a separate entry of the source. Like-named read-outs stand apart in the source and are kept apart here.
How the values were obtained:
Type in all cases: cell-based, Swiss-Webster mice
cerebrocortical neurons [1] = tested on: cerebrocortical neurons
cerebrocortical neurons [2] = assay: Viable neuron count by fluorescein diacetate staining; settings: read-out: EC50 for decreasing the live neuron count, DIV-9, 95% CI 38.4–176 μM
cerebrocortical neurons [3] = assay: Intracellular Ca2+ monitoring
cerebrocortical neurons [4] = assay: Intracellular sodium concentration
cerebrocortical neurons [5] = assay: Membrane potential assay
NMDA receptors = assay: Single-channel cell-attached patch recording of NMDA receptor currents
cerebrocortical neurons [6] = tested on: cerebrocortical neurons; remark: listed apart in the source
Src kinase = tested on: Src kinase
[7] = 15 min preincubation with 10 μM PP2 or PP3, after PbTx-2
[8] = 15 min preincubation with 10 μM PP2 or PP3, before PbTx-2

CN[C@H](CC(=O)O)C(=O)O [NMDA]
sensitivity to NMDA-induced LDH efflux (cerebrocortical neurons [1]; 2, 4 and 6 DIV cultures, after 2 h exposure or at 24 h post-exposure): little sensitivity | maximal LDH efflux (cerebrocortical neurons [1]; DIV-9 cultures, 24 h after initiation of 2 h NMDA exposure): 247 ± 10.5 % of control | EC50 (cerebrocortical neurons [1]; read-out: EC50 for LDH efflux, DIV-9 neurons, 95% CI 27.9–101 μM): 53.1 µM | EC50 (cerebrocortical neurons [2]): 82.2 µM | effect of NMDA alone on [Ca2+]i (cerebrocortical neurons [3]; 3 μM NMDA, DIV-2 neurons): did not affect [Ca^2+]i | EC50 (cerebrocortical neurons [3]; read-out: EC50 for NMDA-induced Ca2+ influx, DIV-4 neurons, absence of PbTx-2): 19.2 µM | EC50 (cerebrocortical neurons [3]; read-out: EC50 for NMDA-induced Ca2+ influx, DIV-9 neurons, absence of PbTx-2): 11.1 µM

C=C(C=O)C[C@@H]1C[C@H](O)[C@]2(C)O[C@@H]3C[C@@H]4O[C@@H]5C[C@]6(C)O[C@]7(C)CC[C@@H]8O[C@@H]9C[C@]%10(C)O[C@@H]%11C(C)=CC(=O)O[C@H]%11C[C@H]%10O[C@H]9C[C@@H](C)[C@H]8O[C@H]7C[C@H]6O[C@H]5C/C=C\[C@H]4O[C@H]3C[C@H]2O1 [PbTx-2, Brevetoxin-2]
Ca2+ influx pathway stimulated (cerebrocortical neurons [3]): primarily through NMDA receptors; also recorded: through both L-type calcium channels and NMDA receptors | effect of PbTx-2 alone on [Ca2+]i (cerebrocortical neurons [3]): did not alter [Ca^2+]i | effect of PbTx-2 alone on fluo-3 fluorescence (cerebrocortical neurons [3]): did not increase fluo-3 fluorescence | effect on NMDA-induced Ca2+ influx (cerebrocortical neurons [3]): robust potentiation | EC50 (cerebrocortical neurons [3]; read-out: EC50 for PbTx-2-stimulated increase in [Ca2+]i): 0.244 µM | [Na+]i increment over basal (cerebrocortical neurons [4]): 8.8 ± 1.8 mM | concentration-response profile of [Na+]i (cerebrocortical neurons [4]): hormetic profile | maximum [Na+]i (cerebrocortical neurons [4]): 16.9 ± 1.5 mM | maximum elevation of [Na+]i (concentration-response) (cerebrocortical neurons [4]): 36.6 ± 0.9 mM | EC50 (cerebrocortical neurons [4]; read-out: EC50 for PbTx-2-induced elevation of [Na+]i): 43.3 nM | membrane potential after PbTx-2 (cerebrocortical neurons [5]): 29.3 ± 0.02 mV | membrane potential change (depolarization) (cerebrocortical neurons [5]): 0.2 ± 0.02 mV | EC50 (cerebrocortical neurons [5]; read-out: EC50 for increment in FMP blue fluorescence (membrane potential)): 96.7 nM | amplitude of single channel currents (NMDA receptors): 6.8 ± 0.4 pA | effect on membrane potential from single channel NMDA receptor currents (NMDA receptors): did not affect | open probability (Po) of NMDA receptors (NMDA receptors): 0.031 ± 0.008 | open time histogram, first time constant (area) (NMDA receptors): 1.6 (65%) | open time histogram, second time constant (area) (NMDA receptors): 4.1 (35%) | shut time histogram, first time constant (area) (NMDA receptors): 0.63 (45%) | shut time histogram, fourth time constant (area) (NMDA receptors): 1361 (11%) | shut time histogram, second time constant (area) (NMDA receptors): 10.0 (16%) | shut time histogram, third time constant (area) (NMDA receptors): 180 (28%) | total neurite length (cerebrocortical neurons [6]): 265.8 ± 20.86 μm and 166.5 ± 17.9 μm | phosphorylation of tyrosine 416 of Src (Src kinase): significant increase

O=C(O)c1ccc2c3c1cccc3c(=O)n1c3ccccc3nc21 [STO-609, 1,8-naphthoylene benzimidazole-3-carboxylic acid]
effect on PbTx-2 enhanced neurite outgrowth (cerebrocortical neurons [6]): completely blocked

NC1=N[C@H](O)[C@H]2[C@H]3O[C@]4(O)O[C@@H]([C@@H](O)[C@@]2(N1)[C@@H]4O)[C@]3(O)CO [TTX, tetrodotoxin]
effect on PbTx-2 enhanced neurite outgrowth (cerebrocortical neurons [6]): completely blocked | total neurite length, inhibitor alone (cerebrocortical neurons [6]): 185 ± 13.2 μm | total neurite length, inhibitor plus 30 nM PbTx-2 (cerebrocortical neurons [6]): 190.2 ± 10.7 μm

Nc1ncnc2c1cnn2-c1ccccc1 [PP3, 4-Amino-7-phenylpyrazol [3,4-d] pyrimidine]
mean open time, inhibitor plus PbTx-2 (NMDA receptors; [7]): 3.87 ± 0.15 ms | open probability (Po), inhibitor plus PbTx-2 (NMDA receptors; [7]): 0.013 ± 0.003 | mean open time, inhibitor alone (control) (NMDA receptors; [8]): 1.39 ± 0.09 ms | open probability (Po), inhibitor alone (control) (NMDA receptors; [8]): 0.0032 ± 0.0005

C[C@]12N[C@H](Cc3ccccc31)c1ccccc12 [MK-801]
effect on PbTx-2 enhanced neurite outgrowth (cerebrocortical neurons [6]): abrogated | total neurite length, inhibitor plus 30 nM PbTx-2 (cerebrocortical neurons [6]): 83.1± 5.26 μm

— paper PMC2683593 (The Journal of neuroscience : the official journal of the …, 2009)
